# Experimental data taken from patent US10668016B2, “Complexes of abiraterone acetate, process for the preparation thereof and pharmaceutical compositions containing them” (NanGenex Nanotechnology Incorporated, priority 2015, dated 2020).
# Read-outs that look alike come from different tables or passages of the source.
# What was measured:
# [1] = target: P-glycoprotein (P-gp) (Homo sapiens, UniProt P08183); settings: cited from earlier work
# [2] = cited from earlier work
# [3] = cited from earlier work; remark: listed apart in the source
# [4] = system: serum testosterone and other androgens; settings: patients, placebo-controlled phase 3 clinical trial; cited from earlier work
# [5] = cited from earlier work; for compound present in feces, % of the administered dose: oral 14C-abiraterone acetate
# [6] = system: human plasma proteins, albumin and alpha-1 acid glycoprotein; settings: cited from earlier work
# [7] = Apparent solubility in distilled water; assay type: physicochemical; settings: distillated water, room temperature, 100 nm filter
# Description: The samples were dispersed in distillated water and the resulting dispersions were filtered by 100 nm disposable syringe filter. […] The filtrate may contain Abiraterone acetate complex particles which could not be filtrated out using 100 nm pore size filter.
# [8] = PAMPA permeability; settings: comparative in-vitro PAMPA assay
# Description: PAMPA permeability measurements were performed as described by M Kansi et al. (Journal of medicinal chemistry, 41, (1998) pp 1007) with modifications based on S. Bendels et al (Pharmaceutical research, 23 (2006) pp 2525). Permeability was measured in a 96-well plate assay across an artificial membrane composed of dodecane with 20% soy lecithin supported by a PVDF membrane (Millipore, USA). The receiver compartment was phosphate buffered saline (pH 7.0) supplemented with 1% sodium dodecyl sulfate. The assay was performed at room temperature; incubation time was 1-24 hours. The concentration in the receiver compartment was determined by UV-VIS spectrophotometry (Thermo Scientific Genesys S10).
# [9] = 1,000 mg daily, patients with metastatic CRPC
# [10] = high-fat (57% fat, 825 calories) meal
# [11] = low-fat meal (7% fat, 300 calories)
# Chain of P-glycoprotein (P-gp) (P08183 whole entry): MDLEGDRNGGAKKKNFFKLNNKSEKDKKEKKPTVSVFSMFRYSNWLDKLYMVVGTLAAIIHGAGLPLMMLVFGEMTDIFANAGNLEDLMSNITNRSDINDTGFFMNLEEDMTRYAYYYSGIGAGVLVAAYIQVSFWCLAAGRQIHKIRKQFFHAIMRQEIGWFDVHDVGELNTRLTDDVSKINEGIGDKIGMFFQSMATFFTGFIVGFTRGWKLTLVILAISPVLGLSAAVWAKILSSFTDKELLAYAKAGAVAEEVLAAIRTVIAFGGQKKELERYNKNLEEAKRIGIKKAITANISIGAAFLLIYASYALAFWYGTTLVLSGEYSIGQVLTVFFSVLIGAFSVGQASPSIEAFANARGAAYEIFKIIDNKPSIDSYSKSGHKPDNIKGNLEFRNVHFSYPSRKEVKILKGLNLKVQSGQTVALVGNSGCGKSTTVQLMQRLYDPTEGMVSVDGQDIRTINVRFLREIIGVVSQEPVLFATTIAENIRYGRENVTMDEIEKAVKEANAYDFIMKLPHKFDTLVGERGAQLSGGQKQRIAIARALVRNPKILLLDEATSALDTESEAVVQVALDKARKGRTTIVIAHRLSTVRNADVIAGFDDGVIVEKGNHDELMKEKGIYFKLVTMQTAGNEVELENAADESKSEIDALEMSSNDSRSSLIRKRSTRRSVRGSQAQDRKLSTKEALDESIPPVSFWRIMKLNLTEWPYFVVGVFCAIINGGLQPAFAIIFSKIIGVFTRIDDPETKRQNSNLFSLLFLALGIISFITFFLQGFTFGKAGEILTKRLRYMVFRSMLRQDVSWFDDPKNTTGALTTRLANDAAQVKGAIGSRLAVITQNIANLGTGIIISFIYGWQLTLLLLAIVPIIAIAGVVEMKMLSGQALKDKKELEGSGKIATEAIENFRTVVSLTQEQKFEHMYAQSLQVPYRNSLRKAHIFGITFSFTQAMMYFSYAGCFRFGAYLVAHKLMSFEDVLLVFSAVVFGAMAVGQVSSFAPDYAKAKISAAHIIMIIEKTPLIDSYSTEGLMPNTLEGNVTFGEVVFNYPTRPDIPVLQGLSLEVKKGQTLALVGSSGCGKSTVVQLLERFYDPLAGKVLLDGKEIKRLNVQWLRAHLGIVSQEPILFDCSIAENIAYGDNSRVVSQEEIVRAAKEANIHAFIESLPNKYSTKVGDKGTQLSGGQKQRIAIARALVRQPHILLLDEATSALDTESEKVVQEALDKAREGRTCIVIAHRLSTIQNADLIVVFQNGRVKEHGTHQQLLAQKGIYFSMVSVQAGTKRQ
compound,measurement,setting,value
"CC(=O)O[C@H]1CC[C@@]2(C)C(=CC[C@@H]3[C@@H]2CC[C@]2(C)C(c4cccnc4)=CC[C@@H]32)C1 [Abiraterone acetate, (3β)-17-(3-pyridinyl) androsta-5,16-dien-3-yl acetate]",P-gp inhibition,[1]; not told,inhibitor
same,P-gp substrate,[1]; not told,not substrates
same,steady-state AUC (mean±SD),[2]; [9],993 ± 639 ng·h/mL
same,steady-state Cmax (mean±SD),[2]; [9],226 ± 178 ng/mL
same,Abiraterone acetate plasma concentrations,[2]; below detectable levels in >99% of the analyzed samples,< 0.2 ng/mL
same,increase in the mean AUC when dose doubled,"[2]; dose doubled from 1,000 to 2,000 mg",8%
same,Abiraterone AUC0-∞ higher with food,[2]; [10],~10 fold
same,Abiraterone Cmax higher with food,[2]; [10],approximately 17 fold
same,Abiraterone AUC0-∞ higher with food,[2]; [11],~5 fold
same,Abiraterone Cmax higher with food,[2]; [11],approximately 7 fold
same,median time to reach maximum plasma Abiraterone concentrations,"[2]; oral, patients with metastatic CRPC",2 h
same,Abiraterone AUC0-∞ (exposure) increase (positive food effect),[2]; single dose,≤ 10 fold
same,Abiraterone Cmax increase (positive food effect),[2]; single dose,up to 17 fold
same,"Abiraterone accumulation: steady-state AUC compared to a single 1,000 mg dose",[2]; steady-state,2 fold
same,Solubility in water,[3],practically insoluble
same,Effect on serum testosterone and other androgens,[4],decreased
same,"compound present in feces, % of the administered dose",[5],approximately 55%
C[C@]12CC[C@H](O)CC1=CC[C@@H]1[C@@H]2CC[C@]2(C)C(c3cccnc3)=CC[C@@H]12 [Abiraterone],P-gp substrate,"[1]; in vitro, clinically relevant concentrations",not substrates
same,bound to human plasma proteins,[6],> 99%
same,"compound present in feces, % of the administered dose",[5],~22%
C[C@]12CC[C@H](OS(=O)(=O)O)CC1=CC[C@@H]1[C@@H]2CC[C@]2(C)C(c3ccc[n+]([O-])c3)=CC[C@@H]12 [N-oxide Abiraterone sulphate],share of exposure of circulating metabolite in human plasma,[5]; oral 14C-abiraterone acetate capsules,about 43%
"(3β)-17-(3-pyridinyl) androsta-5,16-dien-3-yl acetate [Abiraterone acetate]",Apparent solubility,[7],< 4 µg/mL
same,PAMPA permeability,[8],below 0.1*10^−6 cm/s
